Test [1] has as its system Staphylococcus aureus strain NBRC12732. The experiment in a line: Deodorizing component emission test by microorganism. The format is cell-based. Particulars: GC/MS head space peak area minus control; 10 mg compound in 3 mL culture solution, 30° C. 20 hours; released: citronellal (2-3), 2,6-dimethyl-5-heptenal (2-4), trimethylhexanal (2-5), octanal (2-6). As to the method:
(§1) Culture of Staphylococcus aureus strain NBRC12732, Staphylococcus epidermidis strain JCM2414T, Corynebacterium xerosis strain JCM1324, Pseudomonas aeruginosa strain NBRC13275, Bacillus subtilis strain NBRC3134, and Moraxella osloensis strain ATCC19976:
(§2) After inoculating each of bacteria in Muller-Hinton liquid medium, shaking culture was performed at 30° C. for 20 hours. 3 mL of the resulting preculture solution was transferred to a vial bottle, and 10 mg of each of the compounds of Examples 2-2 to 2-6 was mixed, followed by hermetically sealing the bottle. Thereafter, shaking culture was further performed at 30° C. for 20 hours.
(§3) A peak area of the deodorizing compound was obtained by performing GC/MS analysis of the head space component contained in the vial bottle having 3 mL of microorganism culture solution in which 10 mg of each of the compound of Examples 2-2 to 2-6 was mixed. A microorganism culture solution having not mixed therein each of the compounds of Examples 2-2 to 2-6 was used as the control, and a peak area of the control was obtained by the same method as above.
(§4) The difference between the peak area of the deodorizing compound and the peak area of the control was calculated as the deodorizing component emission amount, and the results are shown in Tables 10 to 12.
(§5) • Measuring apparatus: 7890GC/5975MSD (manufactured by Agilent Technologies) • Column: BC-WAX 50 m×0.25 mm I.D. • Temperature rise: 70° C.→220° C., 4° C./min • Split ratio: splitless

Test [2] has as its system Bacillus subtilis strain NBRC3134. The test is described as above. Type of test: cell-based. Particulars: GC/MS head space peak area minus control; 10 mg in 3 mL culture solution, 30° C. 20 hours; released: hexenal (2-2), citronellal (2-3). As for the experimental part:
as §1, §2, §3, §4, §5

Test [3] deals with Corynebacterium xerosis strain JCM1324. Described as above. Type of test: cell-based. The following applies: GC/MS head space peak area minus control; 10 mg in 3 mL culture solution, 30° C. 20 hours; released: hexenal (2-2), citronellal (2-3). As to the method: as §1, §2, §3, §4, §5
Test [4] concerns Moraxella osloensis strain ATCC19976. The description is as above. Type of test: cell-based. Particulars: GC/MS head space peak area minus control; 10 mg in 3 mL culture solution, 30° C. 20 hours; released: hexenal (2-2), citronellal (2-3). As to the method: as §1, §2, §3, §4, §5
Test [5] concerns Pseudomonas aeruginosa strain NBRC13275. Described as above. Type of test: cell-based. The following applies: GC/MS head space peak area minus control; 10 mg in 3 mL culture solution, 30° C. 20 hours; released: hexenal (2-2), citronellal (2-3). As to the method:
as §1, §2, §3, §4, §5

Test [6] deals with Staphylococcus epidermidis strain JCM2414T. The test is described as above. The following applies: GC/MS head space peak area minus control; 10 mg in 3 mL culture solution, 30° C. 20 hours; released: hexenal (2-2), citronellal (2-3). The format is cell-based. As to the method: as §1, §2, §3, §4, §5
Test [7] deals with Propionibacterium acnes strain JCM6473. The test is described as above. Type of test: cell-based. The following applies: GC/MS head space peak area minus control; 10 mg in 3 mL culture solution, static culture 28° C. 3 days; released: hexenal (2-2), citronellal (2-3). As to the method:
After inoculating bacteria in GAM bouillon liquid medium containing Hemin 0.5 ppm and Menadione 0.5 ppm, static culture was performed at 28° C. for 3 days under anaerobic conditions. 3 mL of the resulting preculture solution was transferred to a vial bottle, and 10 mg of each of the compounds of Examples 2-2 to 2-6 was mixed, followed by hermetically sealing the bottle. Thereafter, static culture was further performed at 28° C. for 3 days.
as §3, §4, §5

Test [8] deals with T1, lipase preparation Lipex 100 L produced by Novozymes (Thermomyces lanuginosus, UniProt O59952, N255R/T253R).
T1 construct: purchased Novozymes Lipex 100 L
The experiment in a line: LIPASE-induced fragrance emission test (Lipex 100 L). The format is biochemical. Particulars: GC/MS head space peak area of released compound minus water control; 10 mg compound in 1 g aqueous 1% Lipex 100L; released: menthone (1-1), hexenal (1-2), citral (1-3). As for the experimental part: (§6) 10 mg of each of the compounds of Examples 1-1 to 1-3 and 1 g of an aqueous 1% lipase preparation solution were charged in a vial bottle and mixed and after hermetically sealing the bottle, the mixture was subjected to GC/MS analysis of the head space component to obtain a peak area of the fragrance emitting compound. As a control, water was used in place of the aqueous 1% lipase preparation solution, and the peak area of the control was obtained by the same method.
(§7) The fragrance emission amount was determined from the difference between the peak area of the obtained fragrance emitting compound and the peak area of the control. As the lipase preparation, Lipex 100 L produced by Novozymes, and AY “Amano” 30SD produced by Amano Enzyme Inc. were used.
(§8) • Measuring apparatus: 7890GC/5975MSD (manufactured by Agilent Technologies) • Column: BC-WAX 50 m×0.25 mm I.D. • Temperature rise: 70° C.→220° C., 4° C./min • Split ratio: 60:1

Test [9] concerns lipase preparation AY "Amano" 30SD produced by Amano Enzyme Inc. The experiment in a line: LIPASE-induced fragrance emission test (AY "Amano" 30SD). The format is biochemical. The following applies: GC/MS head space peak area of released citral minus water control; 10 mg compound in 1 g aqueous 1% AY "Amano" 30SD. As for the experimental part: as §6, §7, §8
Test [10] relates to Malassezia furfur strain NBRC0656. Description: Deodorizing component emission test by microorganism. The following applies: GC/MS head space peak area of trimethylhexanal minus control; 10 mg in 3 mL culture solution, static culture 28° C. 3 days. The format is cell-based. As to the method: After inoculating bacteria in Sabouraud liquid medium containing 0.1% Tween 80, static culture was performed at 28° C. for 3 days under anaerobic conditions. 3 mL of the resulting preculture solution was transferred to a vial bottle, and 10 mg of each of the compounds of Examples 2-2 to 2-6 was mixed, followed by hermetically sealing the bottle. Thereafter, static culture was further performed at 28° C. for 3 days.
as §3, §4, §5

The text below walks through data of patent US12319891B2, “Method for releasing aldehyde or ketone” (TAKASAGO INTERNATIONAL CORPORATION, priority 2017, dated 2025).

T1 sequence (O59952 23-291 T253R/N255R): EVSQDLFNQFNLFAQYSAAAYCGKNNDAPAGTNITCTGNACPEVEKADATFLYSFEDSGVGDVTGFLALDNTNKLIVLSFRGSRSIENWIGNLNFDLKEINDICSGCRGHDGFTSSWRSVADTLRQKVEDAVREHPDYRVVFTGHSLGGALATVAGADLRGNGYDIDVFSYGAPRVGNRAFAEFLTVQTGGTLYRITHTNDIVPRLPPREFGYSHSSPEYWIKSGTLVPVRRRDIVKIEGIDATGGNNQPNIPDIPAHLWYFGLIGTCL

Take `CC(C)=CCCC(C)=COC(=O)c1ccccc1` [Example 2-4, 2,6-dimethylhepta-1,5-dienyl Benzoate]: in test [1], the “Deodorizing component emission amount” value is 132,554,000.
In the case of `CC(C)=CCCC(C)C=COC(=O)c1ccccc1` (stereo not drawn) [Example 2-3, 3,7-dimethylocta-1,6-dienyl Benzoate], the “Deodorizing component emission amount” value in [2] was 66,939,425; in [3] it was 692,091,257; in test [4], 25,608,586; in test [5], 42,891,551; in test [1] it was 1,064,240,572; in test [6], 76,886,509. Further, in test [7], the “Deodorizing component emission amount” value is reported as 15,450,553.
For the compound `CC(C)=CCC=C(C)C=COC(=O)c1ccccc1` [Example 1-3, 3,7-dimethylocta-1,3,6-trienyl Benzoate], the Fragrance emission amount was 5,098,870 in test [8] and 16,031,669 in test [9].
Turning to `CC(C)C1=C(OC(=O)c2ccccc2)C[C@H](C)CC1` [Example 1-1, 2-isopropyl-5-methyl-1-cyclohexenyl Benzoate], the Fragrance emission amount in test [8] is reported as 76,407,359.
For the compound `CCCCCCC=COC(=O)c1ccccc1` [Example 2-6, 1-octenyl Benzoate], the “Deodorizing component emission amount” value in [1] is listed as 129,928,279.
On to `CCC=CC=COC(=O)c1ccccc1` [Example 1-2, 1,3-hexadienyl Benzoate], for which the Fragrance emission amount in test [8] is 12,076,381. The “Deodorizing component emission amount” value is listed as 106,596,512 in test [2]; 15,168,728 in test [3]; 8,864,491 in [4]; 10,638,380 in test [5]; 17,179,106 in test [6]; 3,265,759 in test [7].
On to `CC(C=COC(=O)c1ccccc1)CC(C)(C)C` (stereo not drawn) [Example 2-5, 3,5,5-trimethyl-1-hexenyl Benzoate], for which the “Deodorizing component emission amount” value in [1] is 189,916,125; in test [10], 19,153,037.
